The values below come from patent US20060147516A1, “Taste masking system for alprazolam” (CIMA LABS INC., priority 2005, published 2006).

The nature of the data set: Solubility of alprazolam in ethanol (coating solvent). Conditions: at working concentrations in ethanol. The data set is classed as physicochemical. On the procedure:
The resulting particles were discreet, non-tacky and exceptionally workable. By working with various materials, and without wishing to be bound by a particular theory, it was determined that certain drugs react and/or interact with the polymer materials in the taste masking coating material, changing their individual characters rendering the material more tacky. The present invention intends to encompass only those active pharmaceutical ingredients that would not so adversely affect workability so as to prevent their effective use in forming discrete, preferably free flowing, well coated, well characterized solid supports, which may be further coated. Active pharmaceutical ingredients that may be used in addition to alprazolam in accordance with the present invention may include, without limitation, analgesics, anti-inflammatories, antipyretics, antibiotics, antimicrobials, anxiolytics, laxatives, anorexics, antihistamines, antidepressants, antiasthmatics, antidiuretics, antiflatuents, antimigraine agents, antispasmodics, sedatives, antihyperactives, antihypertensives, tranquilizers, decongestants, beta blockers, peptides, proteins, oligonucleotides and other substances of biological origin, and combinations thereof. Also contemplated are the drugs and pharmaceutically active ingredients described in Mantelle, U.S. Pat. No. 5,234,957, in columns 18 through 21. […]

With `Cc1nnc2n1-c1ccc(Cl)cc1C(c1ccccc1)=NC2` [alprazolam], the solubility in ethanol entry is “sparingly soluble”.
